From patent publication US20180042234A1, “FUNGICIDAL PYRAZOLES” (E I DU PONT DE NEMOURS AND COMPANY, priority 2015, published 2018)
Marks after values point to notes of the source that are not given here.

What follows are compounds tested on Blumeria graminis f sp. tritici (assay: Test D: wheat powdery mildew, preventive spray on wheat seedlings, visual disease rating). Settings: 50 ppm test suspension (**).
Assay type: in vivo
Source text: (§1) General protocol for preparing test suspensions for Tests A-E: the test compounds were first dissolved in acetone in an amount equal to 3% of the final volume and then suspended at the desired concentration (in ppm) in acetone and purified water (50/50 mix by volume) containing 250 ppm of the surfactant Trem® 014 (polyhydric alcohol esters). The resulting test suspensions were then used in Tests A-E. Spraying a 200 ppm test suspension to the point of run-off on the test plants was the equivalent of a rate of 800 g/ha.
The test suspension was sprayed to the point of run-off on wheat seedlings. The following day the seedlings were inoculated with a spore dust of Blumeria graminis f sp. tritici, (also known as Erysiphe graminis f sp. tritici, the causal agent of wheat powdery mildew) and incubated in a growth chamber at 20° C. for 8 days, after which time visual disease ratings were made.
(§2) Results for Tests A-E are given in Table A. In the Table, a rating of 100 indicates 100% disease control and a rating of 0 indicates no disease control (relative to the controls). A dash (-) indicates no test results. All results are for 200 ppm except where followed by an asterisk “*” which indicates a 250 ppm test suspension was used or a double asterisk “**” which indicates a 50 ppm test suspension was used.

| SMILES | Test D disease control rating |
| --- | --- |
| CON=C(C)c1c(C)nn(C)c1N(C)c1ccc(F)cc1Cl [Compound 33] | 0** % |

Same assay, conditions: 200 ppm test suspension

| SMILES | Test D disease control rating |
| --- | --- |
| CCCCC(CC)c1c(C)nn(C)c1Nc1ccc(F)cc1Cl (stereo not drawn) [Compound 3] | 0% |
| Cc1nn(C)c(Nc2c(F)cc(Cl)cc2F)c1C1=CCCCC1C (stereo not drawn) [Compound 22] | 56% |
| CCC(C)c1c(C)nn(C)c1Nc1c(F)cc(Cl)cc1F (stereo not drawn) [Compound 23, N-(4-chloro-2,6-difluorophenyl)-1,3-dimethyl-4-(1-methylpropyl)-1H-pyrazol-5-amine] | 95% |
| CC=C(C)c1c(C)nn(C)c1Nc1c(F)cc(Cl)cc1F [Compound 24, N-(4-chloro-2,6-difluorophenyl)-1,3-dimethyl-4-(1-methyl-1-propen-1-yl)-1H-pyrazol-5-amine] | 100% |

Same assay, conditions: 250 ppm test suspension (*)

| SMILES | Test D disease control rating |
| --- | --- |
| Cn1nc(Br)c(C2OCCCO2)c1C(O)c1ccc(F)cc1Cl (stereo not drawn) [Compound 8] | 72* % |
| Cn1nc(Br)c(C2OCCCO2)c1C(O)c1ccc(F)cc1Br (stereo not drawn) [Compound 9] | 64* % |
| Cn1nc(Br)c(C2OCCCO2)c1C(O)c1ccc(F)cc1F (stereo not drawn) [Compound 10] | 90* % |
| Cc1nn(C)c(C(O)c2ccc(F)cc2F)c1C1CCCCC1 (stereo not drawn) [Compound 12, 4-cyclohexyl-α-(2,4-difluorophenyl)-1,3-dimethyl-1H-pyrazole-5-methanol] | 97* % |
| Cc1nn(C)c(Nc2ccc(F)cc2F)c1C1=CCC(C#N)CC1 (stereo not drawn) [Compound 18] | 0* % |
| Cc1nn(C)c(Nc2ccc(F)cc2F)c1C1CCC(C)(C)CC1 [Compound 19] | 96* % |
| Cc1nn(C)c(Nc2ccc(F)cc2Cl)c1C1=CCOCC1 [Compound 21] | 13* % |
| CCC(OC)c1c(C)nn(C)c1Oc1c(F)cccc1F (stereo not drawn) [Compound 25] | 0* % |
| CCON=C(C)c1c(C)nn(C)c1Nc1ccc(F)cc1Cl [Compound 26] | 0* % |
| CCCON=C(C)c1c(C)nn(C)c1Nc1ccc(F)cc1Cl [Compound 27] | 69* % |
| CC(=NOC(C)C)c1c(C)nn(C)c1Nc1ccc(F)cc1Cl [Compound 28] | 0* % |
| CCON=C(C)c1c(C)nn(C)c1N(CC)c1ccc(F)cc1Cl [Compound 29] | 0* % |
| CON=C(C)c1c(C)nn(C)c1Nc1ccc(F)cc1Cl [Compound 30] | 0* % |

What follows are compounds tested on Septoria tritici (assay: Test B: wheat leaf blotch, preventive spray on wheat seedlings, visual disease rating). Settings: 50 ppm test suspension (**).
Assay type: in vivo
Source text: as §1
(§3) The test suspension was sprayed to the point of run-off on wheat seedlings. The following day the seedlings were inoculated with a spore suspension of Septoria tritici (the causal agent of wheat leaf blotch) and incubated in a saturated atmosphere at 24° C. for 48 h, and then moved to a growth chamber at 20° C. for 19 days, after which time visual disease ratings were made.
as §2

| SMILES | Test B disease control rating |
| --- | --- |
| CON=C(C)c1c(C)nn(C)c1N(C)c1ccc(F)cc1Cl [Compound 33] | 0** % |

Same assay, conditions: 200 ppm test suspension

| SMILES | Test B disease control rating |
| --- | --- |
| CCCCC(CC)c1c(C)nn(C)c1Nc1ccc(F)cc1Cl (stereo not drawn) [Compound 3] | 0% |
| CC=C(C)c1c(C)nn(C)c1Nc1c(F)cc(Cl)cc1F [Compound 24, N-(4-chloro-2,6-difluorophenyl)-1,3-dimethyl-4-(1-methyl-1-propen-1-yl)-1H-pyrazol-5-amine] | 96% |

Same assay, conditions: 250 ppm test suspension (*)

| SMILES | Test B disease control rating |
| --- | --- |
| Cn1nc(Br)c(C2OCCCO2)c1C(O)c1ccc(F)cc1Cl (stereo not drawn) [Compound 8] | 5* % |
| Cn1nc(Br)c(C2OCCCO2)c1C(O)c1ccc(F)cc1Br (stereo not drawn) [Compound 9] | 0* % |
| Cn1nc(Br)c(C2OCCCO2)c1C(O)c1ccc(F)cc1F (stereo not drawn) [Compound 10] | 0* % |
| Cc1nn(C)c(C(O)c2ccc(F)cc2F)c1C1CCCCC1 (stereo not drawn) [Compound 12, 4-cyclohexyl-α-(2,4-difluorophenyl)-1,3-dimethyl-1H-pyrazole-5-methanol] | 100* % |
| Cc1nn(C)c(Nc2ccc(F)cc2F)c1C1=CCC(C#N)CC1 (stereo not drawn) [Compound 18] | 79* % |
| Cc1nn(C)c(Nc2ccc(F)cc2F)c1C1CCC(C)(C)CC1 [Compound 19] | 1* % |
| Cc1nn(C)c(Nc2ccc(F)cc2Cl)c1C1=CCOCC1 [Compound 21] | 17* % |
| CCC(OC)c1c(C)nn(C)c1Oc1c(F)cccc1F (stereo not drawn) [Compound 25] | 6* % |
| CCON=C(C)c1c(C)nn(C)c1Nc1ccc(F)cc1Cl [Compound 26] | 33* % |
| CCCON=C(C)c1c(C)nn(C)c1Nc1ccc(F)cc1Cl [Compound 27] | 17* % |
| CC(=NOC(C)C)c1c(C)nn(C)c1Nc1ccc(F)cc1Cl [Compound 28] | 24* % |
| CCON=C(C)c1c(C)nn(C)c1N(CC)c1ccc(F)cc1Cl [Compound 29] | 14* % |
| CON=C(C)c1c(C)nn(C)c1Nc1ccc(F)cc1Cl [Compound 30] | 14* % |

What follows are compounds tested on Botrytis cinerea (assay: Test C: tomato Botrytis, preventive spray on tomato seedlings, visual disease rating). Settings: 50 ppm test suspension (**).
Assay type: in vivo
Source text: as §1
as §3, with “tomato” for “wheat”, “Botrytis cinerea” for “Septoria tritici”, “tomato Botrytis)” for “wheat leaf blotch)”, “20°” for “24°”, “24°” for “20°”, “3” for “19”
as §2

| SMILES | Test C disease control rating |
| --- | --- |
| CON=C(C)c1c(C)nn(C)c1N(C)c1ccc(F)cc1Cl [Compound 33] | 7** % |

Same assay, conditions: 200 ppm test suspension

| SMILES | Test C disease control rating |
| --- | --- |
| Cc1nn(C)c(Nc2c(F)cc(Cl)cc2F)c1C1=CCCCC1C (stereo not drawn) [Compound 22] | 99% |
| CCC(C)c1c(C)nn(C)c1Nc1c(F)cc(Cl)cc1F (stereo not drawn) [Compound 23, N-(4-chloro-2,6-difluorophenyl)-1,3-dimethyl-4-(1-methylpropyl)-1H-pyrazol-5-amine] | 98% |
| CC=C(C)c1c(C)nn(C)c1Nc1c(F)cc(Cl)cc1F [Compound 24, N-(4-chloro-2,6-difluorophenyl)-1,3-dimethyl-4-(1-methyl-1-propen-1-yl)-1H-pyrazol-5-amine] | 85% |

Same assay, conditions: 250 ppm test suspension (*)

| SMILES | Test C disease control rating |
| --- | --- |
| Cn1nc(Br)c(C2OCCCO2)c1C(O)c1ccc(F)cc1Cl (stereo not drawn) [Compound 8] | 0* % |
| Cn1nc(Br)c(C2OCCCO2)c1C(O)c1ccc(F)cc1Br (stereo not drawn) [Compound 9] | 0* % |
| Cn1nc(Br)c(C2OCCCO2)c1C(O)c1ccc(F)cc1F (stereo not drawn) [Compound 10] | 0* % |
| Cc1nn(C)c(C(O)c2ccc(F)cc2F)c1C1CCCCC1 (stereo not drawn) [Compound 12, 4-cyclohexyl-α-(2,4-difluorophenyl)-1,3-dimethyl-1H-pyrazole-5-methanol] | 61* % |
| Cc1nn(C)c(Nc2ccc(F)cc2F)c1C1=CCC(C#N)CC1 (stereo not drawn) [Compound 18] | 73* % |
| Cc1nn(C)c(Nc2ccc(F)cc2F)c1C1CCC(C)(C)CC1 [Compound 19] | 0* % |
| Cc1nn(C)c(Nc2ccc(F)cc2Cl)c1C1=CCOCC1 [Compound 21] | 42* % |
| CCC(OC)c1c(C)nn(C)c1Oc1c(F)cccc1F (stereo not drawn) [Compound 25] | 0* % |
| CCON=C(C)c1c(C)nn(C)c1Nc1ccc(F)cc1Cl [Compound 26] | 0* % |
| CCCON=C(C)c1c(C)nn(C)c1Nc1ccc(F)cc1Cl [Compound 27] | 0* % |
| CC(=NOC(C)C)c1c(C)nn(C)c1Nc1ccc(F)cc1Cl [Compound 28] | 0* % |
| CCON=C(C)c1c(C)nn(C)c1N(CC)c1ccc(F)cc1Cl [Compound 29] | 0* % |
| CON=C(C)c1c(C)nn(C)c1Nc1ccc(F)cc1Cl [Compound 30] | 0* % |

The compounds below were run on Puccinia recondita f. sp. tritici (assay: Test A: wheat leaf rust, preventive spray on wheat seedlings, visual disease rating). Settings: 50 ppm test suspension (**).
Assay type: in vivo
Source text: as §1
as §3, with “Puccinia recondita f. sp.” for “Septoria”, “rust)” for “blotch)”, “20°” for “24°”, “24” for “48”, “7” for “19”
as §2

| SMILES | Test A disease control rating |
| --- | --- |
| CON=C(C)c1c(C)nn(C)c1N(C)c1ccc(F)cc1Cl [Compound 33] | 17** % |

Same assay, conditions: 200 ppm test suspension; 100 = 100% disease control, 0 = no control

| SMILES | Test A disease control rating |
| --- | --- |
| CCCCC(CC)c1c(C)nn(C)c1Nc1ccc(F)cc1Cl (stereo not drawn) [Compound 3] | 9% |
| Cc1nn(C)c(Nc2c(F)cc(Cl)cc2F)c1C1=CCCCC1C (stereo not drawn) [Compound 22] | 68% |
| CCC(C)c1c(C)nn(C)c1Nc1c(F)cc(Cl)cc1F (stereo not drawn) [Compound 23, N-(4-chloro-2,6-difluorophenyl)-1,3-dimethyl-4-(1-methylpropyl)-1H-pyrazol-5-amine] | 68% |
| CC=C(C)c1c(C)nn(C)c1Nc1c(F)cc(Cl)cc1F [Compound 24, N-(4-chloro-2,6-difluorophenyl)-1,3-dimethyl-4-(1-methyl-1-propen-1-yl)-1H-pyrazol-5-amine] | 94% |

Same assay, conditions: 250 ppm test suspension (*)

| SMILES | Test A disease control rating |
| --- | --- |
| Cn1nc(Br)c(C2OCCCO2)c1C(O)c1ccc(F)cc1Cl (stereo not drawn) [Compound 8] | 0* % |
| Cn1nc(Br)c(C2OCCCO2)c1C(O)c1ccc(F)cc1Br (stereo not drawn) [Compound 9] | 0* % |
| Cn1nc(Br)c(C2OCCCO2)c1C(O)c1ccc(F)cc1F (stereo not drawn) [Compound 10] | 0* % |
| Cc1nn(C)c(C(O)c2ccc(F)cc2F)c1C1CCCCC1 (stereo not drawn) [Compound 12, 4-cyclohexyl-α-(2,4-difluorophenyl)-1,3-dimethyl-1H-pyrazole-5-methanol] | 94* % |
| Cc1nn(C)c(Nc2ccc(F)cc2F)c1C1=CCC(C#N)CC1 (stereo not drawn) [Compound 18] | 19* % |
| Cc1nn(C)c(Nc2ccc(F)cc2F)c1C1CCC(C)(C)CC1 [Compound 19] | 0* % |
| Cc1nn(C)c(Nc2ccc(F)cc2Cl)c1C1=CCOCC1 [Compound 21] | 0* % |
| CCC(OC)c1c(C)nn(C)c1Oc1c(F)cccc1F (stereo not drawn) [Compound 25] | 99* % |
| CCON=C(C)c1c(C)nn(C)c1Nc1ccc(F)cc1Cl [Compound 26] | 0* % |
| CCCON=C(C)c1c(C)nn(C)c1Nc1ccc(F)cc1Cl [Compound 27] | 9* % |
| CC(=NOC(C)C)c1c(C)nn(C)c1Nc1ccc(F)cc1Cl [Compound 28] | 32* % |
| CCON=C(C)c1c(C)nn(C)c1N(CC)c1ccc(F)cc1Cl [Compound 29] | 55* % |
| CON=C(C)c1c(C)nn(C)c1Nc1ccc(F)cc1Cl [Compound 30] | 80* % |
